Measurements from patent US20240263207A1, “IN VIVO FLUORINATION” (Danmarks Tekniske Universitet, priority 2018, published 2024).
Read-outs that look alike come from different tables or passages of the source.

Key:
FRS-PT7 system [1] = test system: FRS-PT7 system
Description: (§5) Overnight cultures of P. putida KT2440 with plasmids pSEVA441-FRSv1, pSEVA441-FRSv2, pSEVA441-FRSv3, pSEVA441-FRSv4, or pSEVA441 as autofluorescence control, were diluted 40 times in 10 ml of minimal medium. […] Subsequently, kinetics of the growth and fluorescence, using wavelengths of excitation and emission of 485 nm and 528 nm, respectively, were performed using a SynergyMX (BioTek) microtiter plate reader for 20 hours. Measurements for kinetics were carried out every ten minutes and three independent biological replicates were carried out. The same procedure was carried out with P. putida KT2440::FRS-T7RNAP and P. putida KT2440ΔcrcB::FRS-T7RNAP strains containing the plasmid pSEVA231-T7pr::msfGFP as well as with the plasmid pSEVA231-T7pr, used as an autofluorescence control.

FRS-PT7 system [2] = experiment: Expression assay, FRS-PT7 system with PT7-msfgfp in P. putida KT2440ΔcrcB::FRS-T7RNAP; type: cell-based, Pseudomonas putida; details: lower NaF concentrations than in the P. putida KT2440 background
Description: as §5

P. putida KT2440ΔcrcB [3] = details: data not shown
Description: Growth arrest by NaF in P. putida KT2440ΔcrcB was performed by diluting 20 times the overnight cultures in 10 mL of modified M9 minimal medium. Cells were grown in 96-well microtiter plates (flat bottom, Greiner Bio-one) at 30° C. and 200 rpm in an ELx808 microtiter plate reader (BioTek). After six hours of incubation, the cultures had reached an OD630 of 0.5, and the NaF was added at different concentrations. Cells exposed to the stressor were incubated in a microtiter plate reader for 24 hours, and growth was followed by measuring OD630 every 30 minutes. The concentrations of NaF used were 0, 0.05, 0.1, 0.5, 0.75, 1, 2 and 5 mM.
To explore the possibility of having a growth-decoupled platform for biofluorination, we tested the effect of NaF in the growth when added in mid-exponential phase.

P. putida KT2440ΔcrcB [4] = test system: P. putida KT2440ΔcrcB
Description: (§1) Overnight cultures of P. putida KT2440 and P. putida KT2440ΔcrcB were diluted 20 times in 10 mL of modified M9 minimal medium containing different concentrations of NaF. Cells were grown in 96-well microtiter plates (flat bottom, Greiner Bio-one) at 30° C. and 200 rpm in an ELx808 microtiter plate reader (BioTek). Cells exposed to NaF at various concentrations were incubated in a microtiter plate reader for 24 hours, and growth was followed by measuring OD630 every 30 minutes. The concentrations used for each strain were 0, 25, 50, 75, 125, 200 and 250 mM for P. putida KT2440, and 0, 0.1, 0.5, 1 and 5 mM for P. putida KT2440ΔcrcB.
(§2) The effect of the deletion of crcB on the growth in the presence of high concentrations of NaF in P. putida KT2440 was assessed by calculating the minimal inhibitory concentrations (MICs) of NaF needed to suppress the growth in both a wild-type and a ΔcrcB mutant.

P. putida KT2440 = details: minimal medium, A600 after 20 hours
Description: as §1, §2

[5] = test system: F^− responsive riboswitch (FRS) from P. syringae; experiment: Expression assay, FRS constructs FRSv1-4 before msfGFP in P. putida KT2440; type: cell-based, Pseudomonas putida; details: 0, 1, 5 and 15 mM of NaF
Description: Overnight cultures of P. putida KT2440 with plasmids pSEVA441-FRSv1, pSEVA441-FRSv2, pSEVA441-FRSv3, pSEVA441-FRSv4, or pSEVA441 as autofluorescence control, were diluted 40 times in 10 ml of minimal medium. […] Subsequently, kinetics of the growth and fluorescence, using wavelengths of excitation and emission of 485 nm and 528 nm, respectively, were performed using a SynergyMX (BioTek) microtiter plate reader for 20 hours. Measurements for kinetics were carried out every ten minutes and three independent biological replicates were carried out.
To check the performance of the riboswitch in P. putida KT2440 we cloned four different versions of the riboswitch before the fluorescent reporter protein msfGFP. In the constructions FRSv1 and FRSv2 we kept the original promoter of gene eriC^F, whereas in FRSv3 and FRSv4 we changed the promoter to a constitutive heterologous promoter, PEM7. In the constructions FRSv1 and FRSv3 we conserved the first 8 amino acids of the original eriC^F gene as well, whereas FRSv2 and FRSv4 started with the coding sequence of the msfGFP (FIG. 2).

PNP FlB1 = experiment: In vitro phosphorylase activity assay with cell extracts expressing FlB1; type: biochemical, Streptomyces sp. MA37; details: 20 hours of incubation, extracts with plasmid pFB-T7FlB1(NHis)
Description: In vitro biofluorination was performed with the strain P. putida KT2440 harboring the plasmids pFB-PmflA1, pFB-PT7flB1(NHis), and pFB-PT7flA1, and pPS23 or pSEVA231-PT7pr as negative controls, respectively. Overnight cultures of the strains were diluted to an OD600 of 0.1 in fresh minimal medium, in 250-ml shake flasks. Cells were grown for six hours at 30° C. with shaking of 200 rpm, when they reached an OD600 between 0.4-0.6, after which they were induced with 3-MB 1 mM for the XylS/Pm system or 15 mM of NaF for the FRS-PT7. After 20 hours of incubation, all the volume of culture was centrifuged at 5000 rpm for 10 minutes at 4° C., and the supernatant was discarded. Cellular pellets were washed with Tris-HCl 50 mM pH7.8 and resuspended in a final volume of 3 ml. Cells were disrupted using glass beads in a bead beater, using a program of 6000 rpm for 20 seconds. […] Protein concentrations were determined using a Bradford assay, yielding a concentration of at least 1 mg/ml.
Similarly, for phosphorylase activity assays, 1 ml of the protein fraction from cultures expressing the phosphorylase was then mixed with 0.2 mM of 5′-FDA, in Tris-HCl 50 mM pH7.8. […] After 20 hours of incubation at 30° C., the rest of the reaction was inactivated as described before and the supernatant was taken and analyzed by HPLC. […]

[6] = molecular target: T1, nucleosidase, coded by the gene pfs (Escherichia coli, UniProt P0AF12); experiment: In vitro conversion of 5′-FDA by cell extracts expressing Pfs; type: biochemical, E. coli; details: 20 hours
T1 construct: made in house; host or cells: Pseudomonas putida (pPS23 vector, XylS/Pm system; crude cell extract, not purified)
T1 sequence (P0AF12 whole entry): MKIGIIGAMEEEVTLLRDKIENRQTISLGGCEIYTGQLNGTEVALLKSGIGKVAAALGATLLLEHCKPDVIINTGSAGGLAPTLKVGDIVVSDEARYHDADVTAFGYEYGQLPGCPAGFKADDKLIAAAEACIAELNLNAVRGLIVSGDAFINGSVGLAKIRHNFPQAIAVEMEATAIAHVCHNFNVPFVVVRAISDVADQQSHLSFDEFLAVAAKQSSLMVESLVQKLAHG
Description: (§3) The E. coli purine nucleotide phosphorylase, coded by the gene deoD (SEQ ID NO: 14), as well as the nucleosidase pfs (SEQ ID NO: 16), were amplified by PCR from the genome of the strain MG1655 using reverse primers containing the sequence to introduce a 6×His tag, in order to allow purification if needed. These fragments were respectively mixed with a PCR fragment amplified with USER primers of the pPS23 vector, containing the XylS/Pm expression system. The cloning was performed by USER cloning as described above.
(§4) We furthermore explored the possibility that 5′-FDA could be utilized for other enzymes different to the endogenous of the fluorination pathway from Streptomyces. For this purpose, we used another PNP and a nucleosidase of E. coli. The E. coli PNP, coded by the gene deoD (SEQ ID NO: 14), is able to perform the same reaction as FlB1, and produce 5′-FDRP, whereas the nucleosidase, coded by the gene pfs (SEQ ID NO: 16), removes the […] of 5′-FDA, yielding the sugar 5′-fluorodeoxyribose. These three enzymes share a similarity of 26% in their amino acidic sequence, and contain a common domain, the PNP_UDP_1 domain (PF0148), belonging to the Phosphorylase superfamily. To test the activity of these two enzymes, they were overexpressed in P. putida and the cell extracts were incubated with the substrate 5′-FDA.

[7] = molecular target: T2, E. coli PNP, coded by the gene deoD (Escherichia coli, UniProt P0ABP8); experiment: In vitro conversion of 5′-FDA by cell extracts expressing DeoD; type: biochemical; details: 20 hours
T2 construct: made in house; host or cells: Pseudomonas putida (pPS23 vector, XylS/Pm system; crude cell extract, not purified)
T2 sequence (P0ABP8 whole entry): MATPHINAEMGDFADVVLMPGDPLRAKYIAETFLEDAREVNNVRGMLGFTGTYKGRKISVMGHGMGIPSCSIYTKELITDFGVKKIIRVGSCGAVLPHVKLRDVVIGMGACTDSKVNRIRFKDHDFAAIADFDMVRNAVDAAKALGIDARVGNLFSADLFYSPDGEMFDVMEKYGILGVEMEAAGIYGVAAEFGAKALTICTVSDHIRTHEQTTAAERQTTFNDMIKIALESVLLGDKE
Description: as §3, §4

XylS/Pm system = details: Calero 2016; cited from earlier work

Compound: [F-].[Na+] [NaF, Sodium fluoride]
- Fluorescence response of the FRS-PT7 system (FRS-PT7 system [1]; 0, 1 and 15 mM of NaF): led to an increase of the cells fluorescence
- Final growth of the cultures (FRS-PT7 system [1]; NaF concentrations used for induction (up to 15 mM)): not affected
- Expression levels relative to the wild-type background (FRS-PT7 system [2]): almost two times higher than in the wild-type background
- Effect on growth (P. putida KT2440ΔcrcB [3]; 0.5 mM of NaF added in mid-exponential phase): a decrease in the growth phase was found
- Effect on growth (P. putida KT2440ΔcrcB [3]; 1 mM of NaF added in mid-exponential phase): stopped cell growth almost completely
- Growth inhibition on plates (P. putida KT2440ΔcrcB [4]; LB plates containing 0.5 and 1 mM of NaF): This effect was also seen
- NaF concentration at which the strain was not able to grow (MIC assay) (P. putida KT2440ΔcrcB [4]; minimal medium, A600 after 20 hours): 0.5 mM
- NaF concentration in which the strain was able to thrive (MIC assay) (P. putida KT2440): 75 mM
- Fluorescence response of the four FRS constructs [5]: an increase of the fluorescence when higher concentrations of NaF were used

Compound: [Cl-].[Na+] [NaCl, reference compound]
- Effect on growth of the ΔcrcB mutant versus wild-type (P. putida KT2440ΔcrcB [4]; same assays in the presence of NaCl, data not shown): no such effect was seen

Compound: Nc1ncnc2c1ncn2[C@@H]1O[C@H](CF)[C@@H](O)[C@H]1O [5′-FDA, 5′-fluoro-5′-deoxyadenosine]
- Change of 5′-FDA concentration versus initial concentration (PNP FlB1): a decrease in the concentration of 5′-FDA
- Consumption of substrate 5′-FDA (product 5′-fluorodeoxyribose detected by LC-MS) [6]: reduced or depleted completely
- Consumption of substrate 5′-FDA (product 5′-FDRP detected by LC-MS) [7]: reduced or depleted completely

Compound: Cc1cccc(C(=O)O)c1 [3-MB, 3-methylbenzoate]
- Inducer concentration needed to achieve full expression (XylS/Pm system): 0.5 mM
